pIC50: −log10 of the molar value.
Key:
[1] = molecular target: T1, Lycopene beta-cyclase (Pantoea ananas) (UniProt P21687); assay: Inhibition of Pantoea ananatis lycopene cyclase assessed as residual enzyme activity at 0.5 mM
T1 sequence (whole entry): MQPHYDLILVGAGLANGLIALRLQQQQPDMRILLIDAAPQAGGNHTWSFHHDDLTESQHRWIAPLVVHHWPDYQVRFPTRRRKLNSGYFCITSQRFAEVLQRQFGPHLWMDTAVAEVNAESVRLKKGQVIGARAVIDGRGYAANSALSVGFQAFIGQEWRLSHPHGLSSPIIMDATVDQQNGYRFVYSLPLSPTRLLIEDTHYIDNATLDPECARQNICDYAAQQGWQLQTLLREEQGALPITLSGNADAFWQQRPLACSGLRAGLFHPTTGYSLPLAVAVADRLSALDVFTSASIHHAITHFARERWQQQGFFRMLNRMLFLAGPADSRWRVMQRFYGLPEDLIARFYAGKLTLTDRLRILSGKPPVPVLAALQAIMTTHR

[2] = molecular target: T1, Lycopene beta-cyclase (Pantoea ananas); assay: Inhibition of Pantoea ananatis lycopene cyclase assessed as residual enzyme activity at 10 mM
Lycopene beta-cyclase = molecular target: T2, Lycopene beta-cyclase (Pantoea ananas, UniProt P21687); assay: Inhibition of Pantoea ananatis lycopene cyclase; conditions: read-out: I50
T2 sequence (P21687 whole entry): T1 sequence (whole entry)

Compound | Activity [1] | Activity [2] | pIC50 (Lycopene beta-cyclase)
CC(=O)C(C)=O | 90% | – | –
CN1CCC[C@H]1c1cccnc1 [NICOTINE] | – | 64% | 5.32
CCN(CC)CCOc1ccc(C)cc1 | – | – | 4.92
O=CC(=O)c1ccccc1 | 92% | – | –
NC(=O)CI | 87% | – | –
CCN1C(=O)C=CC1=O | 83% | – | –
Cc1cc(OC(=O)N2CCCCC2)c(C(C)C)cc1[N+](C)(C)C | – | 36% | –

Reference: ChEMBL document CHEMBL3045626, “Interaction of 2-(4-Methylphenoxy)triethylamine and Related Compounds with Its Herbicide Target in the Carotenoid Biosynthetic Pathway” (J Pestic Sci, 1998)
